Experimental findings from paper PMC7770649 (iScience, 2020) are described below.

The structures appear in SMILES notation.

This experiment addresses TPI (triosephosphate isomerase), recombinant. The experiment is described as follows: isothermal titration calorimetry. It is filed as binding. Particulars: 100 μM TPI, 1 mM palmitic amide; DMSO control. (In general: ITC needs no label: the signal is the heat of the interaction.)

One may read the Kd as the equilibrium constant for the complex coming apart. As to `CCCCCCCCCCCCCCCC(N)=O` [palmitic amide], the Kd came out at 4.89 ± 1.23 µM.
